The kinase profiling compilation of Christmann-Franck et al. (2016)

What was measured:
[1] = tested on: AKT1 (human), P31749 [S473D]
[2] = target: AURKA (human) (UniProt O14965)
[3] = target: ERBB4 (human) (UniProt Q15303)
[4] = target: GCK (human) (UniProt Q12851)
[5] = target: IRAK4 (human) (UniProt Q9NWZ3)
[6] = target: MAP3K9 (human) (UniProt P80192)
[7] = target: MAPK10 (human) (UniProt P53779)
[8] = target: MAPKAPK3 (human) (UniProt Q16644)
[9] = target: MARK2 (human) (UniProt Q7KZI7)
[10] = target: MARK4 (human) (UniProt Q96L34)
[11] = target: MYLK (human) (UniProt Q15746)
[12] = tested on: PAK2 (human), Q13177 [T402E]
[13] = target: STK11 (human) (UniProt Q15831)
[14] = target: ABL1 (human) (UniProt P00519); experiment: KINOMEscan competition binding; conditions: compound 10.0 µM
[15] = tested on: ABL1 (human), P00519 [F317I]; experiment: KINOMEscan competition binding; conditions: compound 10.0 µM
[16] = tested on: ABL1 (human), P00519 [F317L]; experiment: KINOMEscan competition binding; conditions: compound 10.0 µM
[17] = tested on: ABL1 (human), P00519 [H396P]; experiment: KINOMEscan competition binding; conditions: compound 10.0 µM
[18] = target: INSR (human) (UniProt P06213)
[19] = target: MTOR (human) (UniProt P42345)
[20] = target: MYLK3 (human) (UniProt Q32MK0)

AKT1 (human), P31749 [S473D], sequence (P31749 whole entry S473D, looked up): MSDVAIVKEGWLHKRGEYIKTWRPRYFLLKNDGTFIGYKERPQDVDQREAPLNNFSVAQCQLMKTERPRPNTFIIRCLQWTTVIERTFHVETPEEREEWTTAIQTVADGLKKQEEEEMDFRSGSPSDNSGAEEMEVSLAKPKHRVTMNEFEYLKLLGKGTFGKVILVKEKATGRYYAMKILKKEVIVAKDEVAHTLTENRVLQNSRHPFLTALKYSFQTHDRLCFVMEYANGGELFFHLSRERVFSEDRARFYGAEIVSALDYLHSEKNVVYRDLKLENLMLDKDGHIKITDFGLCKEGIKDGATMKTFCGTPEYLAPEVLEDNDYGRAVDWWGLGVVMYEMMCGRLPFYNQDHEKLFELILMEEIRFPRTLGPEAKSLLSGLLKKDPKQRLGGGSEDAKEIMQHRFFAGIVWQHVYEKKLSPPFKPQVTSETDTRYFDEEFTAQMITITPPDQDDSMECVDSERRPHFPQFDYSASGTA
MAPK10 (human), sequence (P53779 whole entry, looked up): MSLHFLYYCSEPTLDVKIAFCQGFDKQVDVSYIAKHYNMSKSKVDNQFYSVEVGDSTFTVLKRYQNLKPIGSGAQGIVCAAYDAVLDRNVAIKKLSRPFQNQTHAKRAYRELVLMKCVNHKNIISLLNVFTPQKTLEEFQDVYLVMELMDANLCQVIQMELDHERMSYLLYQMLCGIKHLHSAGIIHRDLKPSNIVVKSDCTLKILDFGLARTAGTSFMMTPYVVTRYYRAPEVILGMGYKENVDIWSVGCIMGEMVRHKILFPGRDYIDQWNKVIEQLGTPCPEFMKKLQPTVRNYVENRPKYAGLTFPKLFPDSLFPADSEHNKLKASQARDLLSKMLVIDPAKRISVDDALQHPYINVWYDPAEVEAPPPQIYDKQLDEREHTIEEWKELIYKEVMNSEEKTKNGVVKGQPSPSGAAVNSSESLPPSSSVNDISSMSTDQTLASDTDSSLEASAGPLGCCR
MAPKAPK3 (human), sequence (Q16644 whole entry, looked up): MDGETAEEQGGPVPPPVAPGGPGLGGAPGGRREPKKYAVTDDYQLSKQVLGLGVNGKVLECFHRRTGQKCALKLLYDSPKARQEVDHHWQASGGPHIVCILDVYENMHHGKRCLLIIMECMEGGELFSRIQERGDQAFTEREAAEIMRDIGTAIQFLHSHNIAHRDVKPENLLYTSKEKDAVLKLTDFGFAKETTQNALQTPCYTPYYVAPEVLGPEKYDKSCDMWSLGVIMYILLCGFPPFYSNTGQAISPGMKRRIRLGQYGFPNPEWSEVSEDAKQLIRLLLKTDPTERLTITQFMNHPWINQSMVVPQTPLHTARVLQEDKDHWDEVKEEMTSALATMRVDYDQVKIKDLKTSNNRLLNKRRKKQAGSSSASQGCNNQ
MYLK (human), sequence (Q15746 whole entry, looked up): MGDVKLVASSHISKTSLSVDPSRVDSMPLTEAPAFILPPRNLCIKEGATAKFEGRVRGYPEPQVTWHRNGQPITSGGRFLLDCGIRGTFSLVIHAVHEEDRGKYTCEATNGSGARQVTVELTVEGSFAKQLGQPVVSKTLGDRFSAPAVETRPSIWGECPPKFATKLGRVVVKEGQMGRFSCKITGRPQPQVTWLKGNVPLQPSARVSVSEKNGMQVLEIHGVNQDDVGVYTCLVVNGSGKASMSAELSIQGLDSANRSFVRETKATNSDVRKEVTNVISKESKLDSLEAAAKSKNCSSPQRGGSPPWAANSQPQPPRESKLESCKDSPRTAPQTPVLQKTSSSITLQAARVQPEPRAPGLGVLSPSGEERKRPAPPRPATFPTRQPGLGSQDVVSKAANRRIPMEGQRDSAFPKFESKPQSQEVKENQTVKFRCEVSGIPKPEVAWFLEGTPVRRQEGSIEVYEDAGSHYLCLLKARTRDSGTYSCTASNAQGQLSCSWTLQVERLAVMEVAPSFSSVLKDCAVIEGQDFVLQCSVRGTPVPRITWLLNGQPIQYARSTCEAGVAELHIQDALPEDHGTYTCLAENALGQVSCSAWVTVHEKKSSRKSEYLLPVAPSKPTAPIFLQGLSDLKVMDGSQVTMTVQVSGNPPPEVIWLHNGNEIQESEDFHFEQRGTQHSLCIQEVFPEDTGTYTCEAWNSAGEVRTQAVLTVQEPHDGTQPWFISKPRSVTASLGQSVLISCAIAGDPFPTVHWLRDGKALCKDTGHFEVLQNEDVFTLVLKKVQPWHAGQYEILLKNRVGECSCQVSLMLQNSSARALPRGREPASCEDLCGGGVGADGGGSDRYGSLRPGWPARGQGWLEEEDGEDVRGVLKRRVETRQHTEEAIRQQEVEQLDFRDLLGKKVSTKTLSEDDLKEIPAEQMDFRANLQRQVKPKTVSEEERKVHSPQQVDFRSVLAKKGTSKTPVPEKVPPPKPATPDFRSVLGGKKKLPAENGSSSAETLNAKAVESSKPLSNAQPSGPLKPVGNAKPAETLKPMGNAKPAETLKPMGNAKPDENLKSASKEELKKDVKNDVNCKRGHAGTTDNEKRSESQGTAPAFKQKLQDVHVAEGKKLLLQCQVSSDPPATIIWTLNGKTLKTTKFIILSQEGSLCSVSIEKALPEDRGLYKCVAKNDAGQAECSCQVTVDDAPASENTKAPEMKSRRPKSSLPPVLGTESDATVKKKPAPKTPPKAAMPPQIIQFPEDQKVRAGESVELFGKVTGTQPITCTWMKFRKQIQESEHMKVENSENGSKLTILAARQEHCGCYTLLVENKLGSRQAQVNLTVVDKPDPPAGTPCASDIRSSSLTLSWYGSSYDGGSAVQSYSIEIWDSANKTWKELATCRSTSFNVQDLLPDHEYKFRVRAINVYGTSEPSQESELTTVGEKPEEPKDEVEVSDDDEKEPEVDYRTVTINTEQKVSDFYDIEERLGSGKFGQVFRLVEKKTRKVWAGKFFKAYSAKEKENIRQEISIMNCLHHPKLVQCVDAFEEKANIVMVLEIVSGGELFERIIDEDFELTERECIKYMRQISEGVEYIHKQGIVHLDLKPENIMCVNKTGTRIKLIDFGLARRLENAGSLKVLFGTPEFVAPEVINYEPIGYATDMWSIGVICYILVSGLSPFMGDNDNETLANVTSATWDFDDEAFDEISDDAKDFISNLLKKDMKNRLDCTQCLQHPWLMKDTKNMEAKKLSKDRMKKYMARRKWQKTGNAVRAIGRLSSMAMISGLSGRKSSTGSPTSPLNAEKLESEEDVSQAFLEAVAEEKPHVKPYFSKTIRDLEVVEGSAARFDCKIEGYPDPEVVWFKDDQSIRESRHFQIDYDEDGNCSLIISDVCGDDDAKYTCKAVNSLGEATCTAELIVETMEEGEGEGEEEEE
GCK (human), sequence (Q12851 whole entry, looked up): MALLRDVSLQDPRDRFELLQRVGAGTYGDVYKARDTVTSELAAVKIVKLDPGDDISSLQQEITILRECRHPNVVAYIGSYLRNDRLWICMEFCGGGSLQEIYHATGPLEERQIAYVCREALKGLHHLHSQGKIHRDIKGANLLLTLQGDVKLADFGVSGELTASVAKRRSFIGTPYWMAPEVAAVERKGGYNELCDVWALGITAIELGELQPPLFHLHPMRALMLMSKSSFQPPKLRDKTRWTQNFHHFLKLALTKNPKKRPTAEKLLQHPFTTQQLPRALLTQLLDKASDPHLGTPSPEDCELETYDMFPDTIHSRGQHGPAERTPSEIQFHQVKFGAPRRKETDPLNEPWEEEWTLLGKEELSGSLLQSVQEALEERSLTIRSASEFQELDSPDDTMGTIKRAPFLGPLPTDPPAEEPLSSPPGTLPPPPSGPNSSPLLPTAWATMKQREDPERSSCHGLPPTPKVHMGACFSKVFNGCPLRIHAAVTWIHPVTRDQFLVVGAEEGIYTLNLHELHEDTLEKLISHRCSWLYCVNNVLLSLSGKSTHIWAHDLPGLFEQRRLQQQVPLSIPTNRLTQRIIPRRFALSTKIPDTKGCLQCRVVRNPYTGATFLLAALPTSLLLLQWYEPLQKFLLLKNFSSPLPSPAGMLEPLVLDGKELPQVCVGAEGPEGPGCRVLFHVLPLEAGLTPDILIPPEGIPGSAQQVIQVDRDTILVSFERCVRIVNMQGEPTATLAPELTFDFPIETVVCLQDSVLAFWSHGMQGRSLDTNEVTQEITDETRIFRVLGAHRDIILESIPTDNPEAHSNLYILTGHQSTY
MARK2 (human), sequence (Q7KZI7 whole entry, looked up): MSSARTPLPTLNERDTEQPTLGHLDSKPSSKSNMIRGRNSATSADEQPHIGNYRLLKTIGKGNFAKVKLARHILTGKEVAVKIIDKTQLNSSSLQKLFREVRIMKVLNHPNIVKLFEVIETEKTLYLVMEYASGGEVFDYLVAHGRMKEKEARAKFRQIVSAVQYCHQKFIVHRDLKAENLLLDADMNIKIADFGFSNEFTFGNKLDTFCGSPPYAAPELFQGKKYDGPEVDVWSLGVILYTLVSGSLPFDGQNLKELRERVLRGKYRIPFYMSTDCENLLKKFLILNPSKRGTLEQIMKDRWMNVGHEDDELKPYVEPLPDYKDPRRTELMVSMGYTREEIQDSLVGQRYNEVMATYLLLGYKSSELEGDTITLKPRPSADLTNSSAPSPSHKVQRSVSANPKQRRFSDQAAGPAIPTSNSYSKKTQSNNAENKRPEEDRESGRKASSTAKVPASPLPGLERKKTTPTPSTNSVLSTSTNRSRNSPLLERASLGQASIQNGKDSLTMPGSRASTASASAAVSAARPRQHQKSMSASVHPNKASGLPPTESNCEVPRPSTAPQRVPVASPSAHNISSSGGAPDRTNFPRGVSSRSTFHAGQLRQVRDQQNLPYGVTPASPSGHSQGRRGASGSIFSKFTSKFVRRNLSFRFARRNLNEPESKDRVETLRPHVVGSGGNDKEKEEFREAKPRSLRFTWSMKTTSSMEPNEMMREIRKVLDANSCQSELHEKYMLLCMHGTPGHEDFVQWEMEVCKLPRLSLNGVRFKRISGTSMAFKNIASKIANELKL

| SMILES | per cent of control ([1]; compound 1.0 µM) | per cent of control ([1]; compound 10.0 µM) | per cent of control ([2]; compound 1.0 µM) | per cent of control ([2]; compound 10.0 µM) | per cent of control ([3]; compound 1.0 µM) | per cent of control ([3]; compound 10.0 µM) | per cent of control ([4]; compound 1.0 µM) | per cent of control ([4]; compound 10.0 µM) | per cent of control ([5]; compound 1.0 µM) | per cent of control ([5]; compound 10.0 µM) | per cent of control ([6]; compound 1.0 µM) | per cent of control ([6]; compound 10.0 µM) | per cent of control ([7]; compound 1.0 µM) | per cent of control ([7]; compound 10.0 µM) | per cent of control ([8]; compound 1.0 µM) | per cent of control ([8]; compound 10.0 µM) | per cent of control ([9]; compound 1.0 µM) | per cent of control ([9]; compound 10.0 µM) | per cent of control ([10]; compound 1.0 µM) | per cent of control ([10]; compound 10.0 µM) | further results |
| --- | --- | --- | --- | --- | --- | --- | --- | --- | --- | --- | --- | --- | --- | --- | --- | --- | --- | --- | --- | --- | --- |
| CCC(=O)N1CCN(c2ccc(-n3c(=O)ccc4cnc5ccc(-c6cnc7ccccc7c6)cc5c43)cc2C(F)(F)F)CC1 | 94% | 71% | 88% | 68% | 110% | 111% | 69% | 25% | 112% | 76% | 92% | 48% | 99% | 79% | 113% | 105% | 117% | 102% | 94% | 97% | per cent of control ([11]; compound 1.0 µM): 94%; per cent of control ([11]; compound 10.0 µM): 83%; per cent of control ([12]; compound 1.0 µM): 93%; per cent of control ([12]; compound 10.0 µM): 82%; per cent of control ([13]; compound 1.0 µM): 96%; per cent of control ([13]; compound 10.0 µM): 80%; kinase still bound, per cent of control [14]: 60%; kinase still bound, per cent of control [15]: 100%; kinase still bound, per cent of control [16]: 100%; kinase still bound, per cent of control [17]: 68% |
| CC(C)n1nc(-c2cc3cc(O)ccc3[nH]2)c2c(N)ncnc21 |  |  |  |  |  |  |  |  |  |  |  |  |  |  |  |  |  |  |  |  | per cent of control ([18]; compound 1.0 µM): 69%; per cent of control ([18]; compound 10.0 µM): 58% |
| COC(=O)Nc1ccc(-c2nc(N3CCOCC3)c3cnn(C4CCN(C(=O)OC)CC4)c3n2)cc1 | 89% | 87% | 90% | 63% | 91% | 108% | 94% | 105% | 107% | 114% | 95% | 109% | 94% | 106% | 109% | 101% | 96% | 118% | 91% | 109% | per cent of control ([11]; compound 1.0 µM): 97%; per cent of control ([11]; compound 10.0 µM): 87%; per cent of control ([12]; compound 1.0 µM): 92%; per cent of control ([12]; compound 10.0 µM): 91%; per cent of control ([13]; compound 1.0 µM): 102%; per cent of control ([13]; compound 10.0 µM): 112%; IC50 [19]: 0.0158 µM |
| COc1ccc(-c2ccc3c(N4CCOCC4)nc(N4C[C@@H](C)O[C@@H](C)C4)nc3n2)cc1CO |  |  |  |  |  |  |  |  |  |  |  |  |  |  |  |  |  |  |  |  | per cent of control ([18]; compound 1.0 µM): 81%; per cent of control ([18]; compound 10.0 µM): 67%; per cent of control ([20]; compound 1.0 µM): 82%; per cent of control ([20]; compound 10.0 µM): 104% |
